Measurements taken from ChEMBL document CHEMBL4665688, “Discovery of AB680: A Potent and Selective Inhibitor of CD73” (J Med Chem, 2020).

Assays:
Cytochrome P450 3A4 = Cytochrome P450 3A4 (Homo sapiens, UniProt P08684); assay: Inhibition of CYP3A4 in human liver microsomes using midazolam as substrate incubated for 5 to 20 mins in presence of NADPH by LC-MS/MS analysis; format: ADME; details: time 5-20 min
Cytochrome P450 2C19 [1] = biological target: T1, Cytochrome P450 2C19 (Homo sapiens, UniProt P33261); assay: Time dependent inhibition of CYP2C19 in human liver microsomes using s-mephenytoin as substrate in presence of NADPH by LC-MS/MS analysis; format: ADME
T1 sequence (P33261 whole entry, the tested form may be a part): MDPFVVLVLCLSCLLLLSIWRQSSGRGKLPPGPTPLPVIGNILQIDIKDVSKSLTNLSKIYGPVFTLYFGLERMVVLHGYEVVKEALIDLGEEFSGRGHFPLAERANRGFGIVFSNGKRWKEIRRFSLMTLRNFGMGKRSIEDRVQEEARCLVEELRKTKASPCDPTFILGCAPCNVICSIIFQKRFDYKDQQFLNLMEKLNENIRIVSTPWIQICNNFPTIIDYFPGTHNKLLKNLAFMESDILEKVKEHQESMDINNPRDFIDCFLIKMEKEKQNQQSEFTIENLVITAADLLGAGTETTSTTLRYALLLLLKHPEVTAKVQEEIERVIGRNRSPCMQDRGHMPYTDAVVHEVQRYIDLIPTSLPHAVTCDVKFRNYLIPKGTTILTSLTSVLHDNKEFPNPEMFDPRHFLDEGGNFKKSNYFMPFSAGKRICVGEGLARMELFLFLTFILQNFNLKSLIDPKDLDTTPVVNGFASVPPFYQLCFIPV

[2] = Half life in human at 25 mg, iv administered as single infusion for 30 to 60 mins; format: ADME, organism-based; details: in vivo, time 30-60 min
Cytochrome P450 2C9 = Cytochrome P450 2C9 (Homo sapiens, UniProt P11712); assay: Time dependent inhibition of CYP2C9 in human liver microsomes using diclofenac as substrate in presence of NADPH by LC-MS/MS analysis; format: ADME
Sequence of Cytochrome P450 2C9 (P11712 whole entry, the tested form may be a part): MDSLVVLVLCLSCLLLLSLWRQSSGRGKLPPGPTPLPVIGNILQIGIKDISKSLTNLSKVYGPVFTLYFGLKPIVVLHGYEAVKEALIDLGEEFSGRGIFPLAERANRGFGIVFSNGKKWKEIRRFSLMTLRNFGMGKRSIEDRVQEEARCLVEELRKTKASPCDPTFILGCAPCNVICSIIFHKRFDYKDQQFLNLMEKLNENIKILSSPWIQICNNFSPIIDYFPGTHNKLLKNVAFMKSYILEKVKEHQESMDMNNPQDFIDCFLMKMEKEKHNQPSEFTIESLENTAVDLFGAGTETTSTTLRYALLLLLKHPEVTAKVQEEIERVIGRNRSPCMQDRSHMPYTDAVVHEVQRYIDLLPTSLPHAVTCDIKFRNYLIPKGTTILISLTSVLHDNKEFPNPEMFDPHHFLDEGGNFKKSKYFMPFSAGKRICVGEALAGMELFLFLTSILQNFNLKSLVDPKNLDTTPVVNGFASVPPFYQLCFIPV

[3] = Clearance in human at 25 mg, iv administered as single infusion for 30 to 60 mins; format: ADME, organism-based; details: in vivo, time 30-60 min
[4] = Volume of distribution at steady state in human at 25 mg, iv administered as single infusion for 30 to 60 mins; format: ADME, organism-based; details: in vivo, time 30-60 min, read-out: Vdss
Cytochrome P450 2C19 [5] = biological target: T1, Cytochrome P450 2C19; assay: Inhibition of CYP2C19 in human liver microsomes using s-mephenytoin as substrate incubated for 5 to 20 mins in presence of NADPH by LC-MS/MS analysis; format: ADME; details: time 5-20 min; read-out: INH
[6] = Cmax in human at 16 mg, iv administered as single infusion for 30 to 60 mins; format: ADME, organism-based; set-up: route intravenous, dose 16 mg, time 30-60; details: in vivo
[7] = Clearance in human at 16 mg, iv administered as single infusion for 30 to 60 mins; format: ADME, organism-based; details: in vivo, time 30-60 min
[8] = Toxicity in human at 0.1 to 25 mg, iv administered as single dose; format: organism-based; details: in vivo, dose 0.1-25 mg
Cytochrome P450 1A2 = biological target: T2, Cytochrome P450 1A2 (Homo sapiens, UniProt P05177); assay: Induction of CYP1A2 (unknown origin) assessed as effect on CYP1A2 mRNA expression; format: ADME
T2 sequence (P05177 whole entry): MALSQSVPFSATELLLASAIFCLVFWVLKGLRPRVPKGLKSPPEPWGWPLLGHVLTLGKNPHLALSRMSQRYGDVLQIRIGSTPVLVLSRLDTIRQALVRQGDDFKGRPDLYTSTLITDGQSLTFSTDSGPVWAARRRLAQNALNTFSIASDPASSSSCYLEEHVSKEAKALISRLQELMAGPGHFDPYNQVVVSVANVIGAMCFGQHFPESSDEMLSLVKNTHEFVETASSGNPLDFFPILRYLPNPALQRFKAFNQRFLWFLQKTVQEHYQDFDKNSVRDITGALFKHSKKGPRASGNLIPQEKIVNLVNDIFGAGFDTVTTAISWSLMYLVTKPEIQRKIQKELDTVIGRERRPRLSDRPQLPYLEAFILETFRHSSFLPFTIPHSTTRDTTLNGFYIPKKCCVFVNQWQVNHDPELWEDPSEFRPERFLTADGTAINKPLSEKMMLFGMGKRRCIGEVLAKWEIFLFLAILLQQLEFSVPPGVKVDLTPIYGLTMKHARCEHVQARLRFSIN

[9] = Half life in human at 16 mg, iv administered as single infusion for 30 to 60 mins; format: ADME, organism-based; details: in vivo, time 30-60 min
[10] = biological target: T3, Nuclear receptor subfamily 1 group I member 2 (Homo sapiens, UniProt O75469); assay: Activation of PXR (unknown origin) by reporter gene assay; format: ADME
T3 sequence (O75469 whole entry): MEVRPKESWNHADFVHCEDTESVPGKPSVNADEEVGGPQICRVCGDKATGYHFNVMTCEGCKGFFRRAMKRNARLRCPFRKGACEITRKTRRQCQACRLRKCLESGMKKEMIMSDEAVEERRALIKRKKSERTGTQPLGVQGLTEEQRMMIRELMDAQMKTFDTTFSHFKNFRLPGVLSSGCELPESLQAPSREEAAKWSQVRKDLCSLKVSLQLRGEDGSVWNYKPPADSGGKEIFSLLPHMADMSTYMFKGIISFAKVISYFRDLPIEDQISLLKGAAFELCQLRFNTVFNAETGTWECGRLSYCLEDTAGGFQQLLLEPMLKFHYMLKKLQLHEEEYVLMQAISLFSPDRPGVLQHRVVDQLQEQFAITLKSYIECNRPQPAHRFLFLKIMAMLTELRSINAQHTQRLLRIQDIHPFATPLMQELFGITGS

5'-nucleotidase = 5'-nucleotidase (Homo sapiens, UniProt P21589); assay: Inhibition of soluble human CD73
Sequence of 5'-nucleotidase (P21589 whole entry): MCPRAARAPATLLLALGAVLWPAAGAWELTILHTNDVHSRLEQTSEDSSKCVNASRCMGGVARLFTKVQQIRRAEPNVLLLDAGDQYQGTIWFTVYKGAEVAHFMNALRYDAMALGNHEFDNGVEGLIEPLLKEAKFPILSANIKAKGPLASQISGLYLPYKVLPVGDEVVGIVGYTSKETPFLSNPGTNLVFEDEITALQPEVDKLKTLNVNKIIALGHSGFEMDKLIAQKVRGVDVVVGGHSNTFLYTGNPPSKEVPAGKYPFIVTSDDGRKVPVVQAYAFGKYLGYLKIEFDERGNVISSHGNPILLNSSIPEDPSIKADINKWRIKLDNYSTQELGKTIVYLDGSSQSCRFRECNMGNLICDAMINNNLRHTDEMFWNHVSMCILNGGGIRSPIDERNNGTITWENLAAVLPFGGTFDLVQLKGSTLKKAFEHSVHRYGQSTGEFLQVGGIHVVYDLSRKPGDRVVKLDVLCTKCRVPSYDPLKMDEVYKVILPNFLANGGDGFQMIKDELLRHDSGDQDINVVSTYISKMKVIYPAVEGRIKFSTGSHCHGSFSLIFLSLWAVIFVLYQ

Sequence of Cytochrome P450 3A4 (P08684 whole entry): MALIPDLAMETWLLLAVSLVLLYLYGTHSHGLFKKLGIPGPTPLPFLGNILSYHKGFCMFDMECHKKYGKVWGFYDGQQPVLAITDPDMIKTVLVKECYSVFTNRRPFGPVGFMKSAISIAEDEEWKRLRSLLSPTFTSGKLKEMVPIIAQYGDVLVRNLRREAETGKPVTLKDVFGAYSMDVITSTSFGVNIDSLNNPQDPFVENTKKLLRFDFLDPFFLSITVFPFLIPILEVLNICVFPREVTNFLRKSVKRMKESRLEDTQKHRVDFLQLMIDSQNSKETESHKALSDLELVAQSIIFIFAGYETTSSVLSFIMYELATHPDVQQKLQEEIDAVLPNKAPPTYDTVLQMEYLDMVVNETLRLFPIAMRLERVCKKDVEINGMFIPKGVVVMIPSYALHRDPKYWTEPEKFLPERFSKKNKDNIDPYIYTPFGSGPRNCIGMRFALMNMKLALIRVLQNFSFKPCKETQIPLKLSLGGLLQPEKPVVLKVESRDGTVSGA

Row | Compound | INH (Cytochrome P450 3A4) [µM] | TDI (Cytochrome P450 2C19 [1]) | half-life [2] [h] | TDI (Cytochrome P450 2C9) | clearance [3] [mL/min] | Vd [4] [L] | IC50 (Cytochrome P450 2C19 [5]) [nM] | Cmax [6] [ng/mL] | clearance [7] [mL/min] | Activity [8] | Activity (Cytochrome P450 1A2) | half-life [9] [h] | Activity [10] | IC50 (5'-nucleotidase) [nM]
1 | C[C@H](Nc1cc(Cl)nc2c1cnn2[C@@H]1O[C@H](COP(=O)(O)CP(=O)(O)O)[C@@H](O)[C@H]1O)c1ccccc1F | > 100 | Not Active | 74.2 | Not Active | 1.14 | 6.98 | > 100000 | 3910 | 1.12 | Non-Toxic | Not Active | 66.6 | Not Active | 
2 | C[C@H](Nc1nc(Cl)nc2c1cnn2[C@@H]1O[C@H](COP(=O)(O)CP(=O)(O)O)[C@@H](O)[C@H]1O)c1ccccc1 |  |  |  |  |  |  |  |  |  |  |  |  |  | 0.053
